This is an account of results in US20230028441A1, “NOVEL HETEROARYL-TRIAZOLE COMPOUNDS AS PESTICIDES” (Bayer Aktiengesellschaft, priority 2019, published 2023).

What all share (format): in vivo
In assay [1] the test system is larvae of the banded cucumber beetle (Diabrotica balteata). Description: Diabrotica balteata spray test. The conditions noted are these: 168 h, after 7 days, wheat seeds, read-out: efficacy (seedlings grown up); for pest or weed control at 32 µg/disc, 100 g/ha: 100 g/ha (=32 μg/well). In a few lines: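 Germinated wheat seedlings (5 per well, agar plates) sprayed with compound in acetone/DMF diluted in water with 1000 ppm emulsifier, then infested with 10-20 larvae per unit. Efficacy scored after 7 days as % seedling growth relative to untreated, uninfested control (100% = normal growth, 0% = none).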

For assay [2], the system named is fall armyworm larvae (Spodoptera frugiperda). Kind of assay: Spodoptera frugiperda spray test (maize leaf sections). The conditions noted are these: 168 h. The gist of the method: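 Maize leaf sections were sprayed with compound formulated in acetone/DMF and diluted in water containing 1000 ppm emulsifier. Once dry, sections were infested with fall armyworm larvae. Mortality (%) was scored after 7 days.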

Assay [3] relates to adult engorged female ticks (Rhipicephalus microplus). Kind of assay: Rhipicephalus (Boophilus) microplus injection test. The settings on record: 168 h, egg deposition after 7 days, read-out: efficacy (infertile eggs); for pest or weed control at 0.004 mg: 4 μg/animal. The gist of the method:
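Compound was dissolved in DMSO at 10 mg per 0.5 mL and diluted with DMSO to the test concentration. Five engorged adult females received a 1 μL abdominal injection and were kept in a climate chamber. After 7 days, fertile egg deposition was scored, with unclear eggs held until hatching at about 42 days; 100% efficacy means all eggs were infertile.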

Assay [4] has as its system cattle ticks (Rhipicephalus microplus) strain Parkhurst, SP-resistant. Description: Rhipicephalus (Boophilus) microplus dip test. The conditions noted are these: 100 ppm, egg deposition after 7 days. As for the experimental part:
Test animal: cattle ticks (Rhipicephalus microplus) strain Parkhurst, SP-resistant
Solvent: dimethyl sulfoxide
To produce a suitable preparation of active compound, 10 mg of active compound are dissolved in 0.5 mL solvent, and the concentrate is diluted with water to the desired concentration.
This compound solution is pipetted into tubes. 8-10 engorged, adult, female cattle ticks (Rhipicephalus microplus) are placed in perforated tubes. These tubes are immersed in the aqueous compound solution until the ticks are completely moistened. After the liquid has drained off, the ticks are transferred to a filter paper in a plastic tray and stored in a climate chamber.
After 7 days egg deposition of fertile eggs is monitored. Eggs where fertility is not visible are stored in a climate chamber till hatching after about 42 days. An efficacy of 100% means all eggs are infertile; 0% means all eggs are fertile.

For assay [5], the system named is Anopheles funestus strain FUMOZ-R. Kind of assay: Anopheles funestus test (ANPHFU surface treatment & contact assay). The settings on record: 24 hours after contact, read-out: efficacy (mortality). Here is the method: (§1) Solvent: Aceton+2000 ppm rapeseed oil methyl ester (RME)
In order to produce a sufficient, active ingredient containing solution it is necessary to solve the test compound in the solvent-mix (acetone at 2 mg/ml/RME 2000 ppm). This solution is pipetted onto a glazed tile and after evaporation of the acetone, adult mosquitoes of the species Anopheles funestus strain FUMOZ-R (Hunt et al., Med. Vet. Entomol. 2005 September; 19(3): 271-275) are placed onto the dried surface. The exposure time is 30 minutes.
(§2) Mortality in percent (%) is determined 24 hours after contact of the insects to the treated surface. 100% mortality means that all tested insects are dead, whereas 0% means that no insect died.

Assay [6] has as its system green peach aphid (Myzus persicae). Kind of assay: Myzus persicae spray test. The conditions noted are these: foliar, 120 h, 100 g/ha, after 5 days, Chinese cabbage leaf disks. The gist of the method: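 Chinese cabbage leaf disks carrying all instars of Myzus persicae were sprayed with compound. The formulation was acetone/dimethylformamide diluted in water with 1000 ppm alkylarylpolyglycol ether emulsifier. Percent mortality was scored after 5 days, with 100% meaning all aphids killed.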

The test system of assay [7] is Blattella germanica strain PAULINIA
Description: Blattella germanica test (BLTTGE surface treatment & contact assay). The settings on record: 24 hours after contact, read-out: efficacy (mortality). Here is the method:
as §1
In order to produce a sufficient, active ingredient containing solution it is necessary to solve the test compound in the solvent-mix (acetone at 2 mg/ml/RME 2000 ppm). This solution is pipetted onto a glazed tile and after evaporation of the acetone, adult animals of the species Blattella germanica strain PAULINIA are placed onto the dried surface. The exposure time is 30 minutes.
as §2

Assay [8] deals with caterpillars of the fall army worm (Spodoptera frugiperda). Description: Spodoptera frugiperda spray test (cotton leaves). The settings on record: 168 h. In a few lines: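 Cotton leaves sprayed with compound in water/DMF with 1000 ppm alkylaryl polyglycol ether emulsifier, ammonium salt and/or penetration enhancer at 1000 ppm added if necessary, then infested with fall armyworm caterpillars. Mortality in % scored after 7 days; 100% means all caterpillars killed.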

The mark [9] stands for this setting: surface concentration 4 mg/m^2, 30 minutes exposure.
Where [10] appears, read: surface concentration 20 mg/m^2, 30 minutes exposure.

Turning to `CNc1nc(C(C)NC(=O)c2cc(C(F)(F)F)cc(C(F)(F)F)c2)n(-c2ncccn2)n1` (stereo not shown) [I-088], the pest or weed control at 32 µg/disc, 100 g/ha in assay [1] was 100%. The mortality at 100 g/ha in assay [2] and in assay [6] was 100% throughout. The pest or weed control at 0.004 mg in assay [3] amounted to 100%. In assay [4], the “efficacy (infertile eggs)” value worked out at 100%. In addition, the mortality at 4 mg/m2 in assay [5] (setting [9]) and in assay [7] (setting [9]) was 90 to 100% throughout. Further, the mortality at 20 mg/m2 in assay [5] (setting [10]) and in assay [7] (setting [10]) was 90 to 100% each time.

As to `CC(NC(=O)c1cc(Cl)cc(C(F)(F)F)c1)c1nc(N)nn1-c1ccc(Cl)cn1` (racemic) [I-006, N-[1-[5-amino-2-(5-chloro-2-pyridyl)-1,2,4-triazol-3-yl]ethyl]-3-chloro-5-(trifluoromethyl)benzamide], the pest or weed control at 32 µg/disc, 100 g/ha in assay [1] came out at 100%. Also, in assay [1] (500 g/ha (=160 μg/well)), the pest or weed control at 160 µg/disc, 500 g/ha was 100%. In assay [2], this molecule had a mortality at 100 g/ha of 100% and a mortality at 500 g/ha of 100%. In addition, in assay [3], the pest or weed control at 0.004 mg turned out to be 100%. The pest or weed control at 0.02 mg in assay [3] (20 μg/animal) was 100%. The mortality at 20 ppm in assay [8] turned out to be 100%.
